Data from ChEMBL document CHEMBL4007485, “Examining the structure-activity relationship of benzopyran-based inhibitors of the hypoxia inducible factor-1 pathway” (Bioorg Med Chem Lett, 2017).

Tested on: not listed separately
Test: Inhibition of HIF-1 pathway in human LN229 cells harboring HRE-AP assessed sa reduction in VEGF transcription pretreated for 1 hr under normoxic condition followed by 24 hrs incubation under hypoxic condition by HRE-[…] reporter gene assay
Assay type: cell-based
Conditions: LN-229

Compound	IC50 [µM]
COc1ccc(S(=O)(=O)N(Cc2ccc3c(c2)C=CC(C)(C)O3)c2ccccc2)cc1OC	0.59
COc1ccc(S(=O)(=O)N(Cc2ccc([N+](=O)[O-])cc2)C2CCC2)cc1OC	> 5
COc1ccc(S(=O)(=O)N(Cc2ccccc2[N+](=O)[O-])C2CCC2)cc1OC	> 5
CC1(C)C=Cc2cc(CN(c3ccccc3)S(=O)(=O)c3ccc(OC(F)(F)F)cc3)ccc2O1	> 5
CCOc1ccc(S(=O)(=O)N(Cc2ccc3c(c2)C=CC(C)(C)O3)C2CCCC2)cc1	> 5
COc1ccc(CCN(Cc2ccc3c(n2)C=CC(C)(C)O3)S(=O)(=O)c2ccc(OC)c(OC)c2)cc1OC	> 5
CC1(C)C=Cc2cc(CN(C3CCC3)S(=O)(=O)c3ccc(Br)cc3)ccc2O1	> 5
COc1ccc(S(=O)(=O)N(Cc2ccc3c(c2)OCO3)c2ccccc2)cc1OC	> 5
CC1(C)C=Cc2cc(CN(C3CCC3)S(=O)(=O)c3ccc(F)c(F)c3)ccc2O1	4.6
COc1ccc(CN(C2CCC2)S(=O)(=O)c2ccc(OC)c(OC)c2)c(OC)c1	> 5
COc1ccc(S(=O)(=O)N(Cc2ccc[nH]2)C2CCC2)cc1OC	> 5
COc1ccc(S(=O)(=O)N(Cc2ccc3c(c2)CCC(C)(C)O3)CC2COC2)cc1OC	> 5
CC1(C)C=Cc2cc(CN(c3ccccc3)S(=O)(=O)c3ccc(C#N)cc3)ccc2O1	> 5
CC1(C)C=Cc2cc(CN(C3CCC3)S(=O)(=O)c3ccc(OC(F)(F)F)cc3)ccc2O1	> 5
COc1ccc(S(=O)(=O)N(Cc2ccc3nonc3c2)c2ccccc2)cc1OC	> 5
COc1ccc(S(=O)(=O)N(Cc2ccccc2)C2CCC2)cc1OC	> 5
Cc1noc(C)c1S(=O)(=O)N(Cc1ccc2c(c1)C=CC(C)(C)O2)C1CCC1	> 5
CC1(C)C=Cc2cc(CN(c3ccccc3)S(=O)(=O)c3ccc(F)c(F)c3)ccc2O1	> 5

Second part, the compound after the results:

IC50 [µM]	Compound
0.5	COc1ccc(S(=O)(=O)N(Cc2ccc3c(c2)C=CC(C)(C)O3)C2CCCC2)cc1OC
0.28	COc1ccc(S(=O)(=O)N(Cc2ccc3c(n2)C=CC(C)(C)O3)C2CCC2)cc1OC
0.98	COc1ccc(S(=O)(=O)N(Cc2ccc3c(c2)CCC(C)(C)O3)c2ccccc2)cc1OC
2.5	CC1(C)C=Cc2nc(CN(C3CCC3)S(=O)(=O)c3ccc(CBr)cc3)ccc2O1
4	COc1ccc(S(=O)(=O)N(Cc2ccc3c(c2)C=CC(C)(C)O3)CC2COC2)cc1OC
4.4	CCOc1ccc(S(=O)(=O)N(Cc2ccc3c(c2)C=CC(C)(C)O3)C2CCC2)cc1
0.75	COc1ccc(S(=O)(=O)N(Cc2ccc3c(c2)C=CC(C)(C)O3)C2CCC2)cc1OC
3.1	COc1ccc(S(=O)(=O)N(Cc2cc3c(cc2Br)OC(C)(C)C=C3)c2ccccc2)cc1OC
3.5	COc1ccc(S(=O)(=O)N(Cc2ccc3c(c2)CCO3)C2CCC2)cc1OC
0.39	COc1ccc(S(=O)(=O)N(Cc2ccc3c(c2)CCC(C)(C)O3)C2CCC2)cc1OC
1.2	COc1ccc(S(=O)(=O)N(Cc2ccc3c(n2)CCC(C)(C)O3)C2CCC2)cc1
1.5	COc1ccc(S(=O)(=O)N(Cc2ccc3c(c2)C=CC(C)(C)O3)C2CCCC2)c(OC)c1
1	COc1ccc(S(=O)(=O)N(Cc2ccc(CN3CCOCC3)cc2)C2CCC2)cc1OC
3.2	COc1ccc(S(=O)(=O)N(Cc2cc(C)c3c(c2)C=CC(C)(C)O3)c2ccccc2)cc1OC
3.9	COc1ccc(CN(C2CCC2)S(=O)(=O)c2ccc(OC)c(OC)c2)cc1
4	CC1(C)C=Cc2nc(CN(C3CCC3)S(=O)(=O)c3ccc(OC(F)(F)F)cc3)ccc2O1
1	COc1cccc(S(=O)(=O)N(Cc2ccc3c(c2)C=CC(C)(C)O3)c2ccccc2)c1
3.2	COc1ccc(S(=O)(=O)N(Cc2ccc3c(c2)CCC(C)(C)O3)c2ccccc2)cc1
1.8	COc1ccc(S(=O)(=O)N(Cc2cccc3c2OC(C)(C)C=C3)c2ccccc2)cc1OC
1.3	COc1ccc(S(=O)(=O)N(Cc2ccc3c(c2)OCO3)C2CCC2)cc1OC
0.25	COc1ccc(S(=O)(=O)N(Cc2ccc3c(n2)CCC(C)(C)O3)C2CCC2)cc1OC
3	CC1(C)C=Cc2cc(CN(C3CCCC3)S(=O)(=O)c3ccc(CBr)cc3)ccc2O1
3.3	COc1ccc(S(=O)(=O)N(Cc2cc3c(cc2C)OC(C)(C)C=C3)c2ccccc2)cc1OC
1.8	COc1ccc(S(=O)(=O)N(Cc2ccc3c(n2)C=CC(C)(C)O3)C2CCC2)cc1

Tested on: LN-229
Test: Antitumor activity against human LN229 cells xenografted in nude mouse assessed as tumor growth inhibition at 60 mg/kg administered for 5 days in a week for 10 to 12 weeks relative to control
Assay type: functional
Conditions: not given

Compound	fold change (FC)
COc1ccc(S(=O)(=O)N(Cc2ccc3c(c2)C=CC(C)(C)O3)c2ccccc2)cc1OC	6

Tested on: not listed separately
Test: Inhibition of HIF-1 pathway in human LN229 cells harboring HRE-AP by alkaline phosphatase reporter gene assay
Assay type: cell-based
Conditions: LN-229

Compound	IC50 [µM]
COc1ccc(S(=O)(=O)N(Cc2ccc3c(c2)C=CC(C)(C)O3)c2ccccc2)cc1OC	0.6
